# From paper PMC3557594 (Biochimie, 2012)
# Like-named read-outs stand apart in the source and are kept apart here.
# Columns and labels:
# [1] = target: T1, Neisseria meningitides alanine aminopeptidase (NmAPN) (Neisseria meningitidis, UniProt Q9JYV4); type: biochemical; conditions: substrate 3 μM, enzyme 1.37 nM, pH 7.5
# T1 sequence (Q9JYV4 1-867): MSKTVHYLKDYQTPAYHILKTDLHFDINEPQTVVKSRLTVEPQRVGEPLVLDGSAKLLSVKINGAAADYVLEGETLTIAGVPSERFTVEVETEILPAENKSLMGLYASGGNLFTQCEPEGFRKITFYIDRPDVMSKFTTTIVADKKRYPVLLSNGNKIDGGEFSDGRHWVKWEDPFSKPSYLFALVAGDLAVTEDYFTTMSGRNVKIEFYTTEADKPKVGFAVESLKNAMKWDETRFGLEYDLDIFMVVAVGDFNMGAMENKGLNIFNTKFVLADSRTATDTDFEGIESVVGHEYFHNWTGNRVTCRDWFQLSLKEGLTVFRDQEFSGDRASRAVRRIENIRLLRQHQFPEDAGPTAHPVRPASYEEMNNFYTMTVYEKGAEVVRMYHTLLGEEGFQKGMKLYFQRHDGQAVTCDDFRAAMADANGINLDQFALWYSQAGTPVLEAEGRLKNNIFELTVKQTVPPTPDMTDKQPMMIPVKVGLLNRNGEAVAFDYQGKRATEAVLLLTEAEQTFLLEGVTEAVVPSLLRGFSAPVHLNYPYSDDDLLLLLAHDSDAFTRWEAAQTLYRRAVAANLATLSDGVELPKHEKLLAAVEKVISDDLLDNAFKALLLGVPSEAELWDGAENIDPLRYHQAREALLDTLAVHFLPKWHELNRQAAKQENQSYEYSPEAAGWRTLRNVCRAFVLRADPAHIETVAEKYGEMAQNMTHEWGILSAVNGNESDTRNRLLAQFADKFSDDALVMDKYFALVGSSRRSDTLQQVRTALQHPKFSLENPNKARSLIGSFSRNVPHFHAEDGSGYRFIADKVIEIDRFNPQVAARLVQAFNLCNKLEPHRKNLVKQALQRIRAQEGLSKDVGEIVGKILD
# [2] = target: T1, Neisseria meningitides alanine aminopeptidase (NmAPN); test: Kinetic parameters determination; type: biochemical; conditions: ACC substrate, 50 mM Tris-HCl pH 7.5, 37 °C, enzyme 1.13 nM
# NmAPN = NmAPN (Neisseria meningitidis, UniProt Q9JYV4); test: biochemical; type: biochemical, Neisseria meningitides; conditions: for mode of inhibition: Lineweaver-Burk plot
# porcine kidney APN = conditions: cited from earlier work
# PfAPN = conditions: Plasmodium falciparum APN; cited from earlier work
smiles,measurement,setting,value
N[C@@H](Cc1ccc(OCC(=O)O)cc1)C(=O)O [4(1-carboxymethoxy)-L-Phe],hydrolysis of ACC substrate by NmAPN (in words),[1],not hydrolyzed
NC(=O)Cc1cc(=O)oc2cc(NC(=O)[C@@H](N)Cc3ccc(Br)cc3)ccc12 [Compound 4-Br-L-Phe],Km,[2],> 250 µM
CC[C@H](N)C(=O)Nc1ccc2c(CC(N)=O)cc(=O)oc2c1 [L-Abu],"rate of hydrolysis, proportional to kcat/Km, as percentage of the best substrate cleavage (L-hArg-ACC, 100%)",[1],20–40%
NC(CCc1ccccc1)P(=O)(O)CNC(Cc1ccc(O)cc1)C(=O)O (stereo not shown) [Compound 6],IC50,"NmAPN; L-Arg-ACC 20 μM, enzyme 0.85 nM, 30 min preincubation, 37 °C",3290 ± 150 nM
same,Ki,"NmAPN; calculated from IC50 by Cheng-Prusoff equation, L-Arg-ACC 20 μM",2510 ± 110 nM
NC(=O)Cc1cc(=O)oc2cc(NC(=O)[C@@H](N)CCC(=O)OCc3ccccc3)ccc12 [L-Glu(Bzl)],"rate of hydrolysis, proportional to kcat/Km, as percentage of the best substrate cleavage (L-hArg-ACC, 100%)",[1],38.5–74.0%
NC(CCc1ccccc1)[PH](=O)O (stereo not shown) [Compound 3],IC50,NmAPN,1910 ± 50 nM
NCCC(=O)O [β-Ala],hydrolysis of ACC substrate by NmAPN (in words),[1],not hydrolyzed
N=C(NCCC[C@H](N)C(=O)Nc1ccc2c(CC(N)=O)cc(=O)oc2c1)N[N+](=O)[O-] [L-Arg(NO2)],"rate of hydrolysis, proportional to kcat/Km, as percentage of the best substrate cleavage (L-hArg-ACC, 100%)",[1],38.5–74.0%
N=C(N)NCCCC(N)P(=O)(O)O (stereo not shown) [Compound 1],IC50,NmAPN,1910 ± 180 nM
same,Ki,NmAPN,1460 ± 140 nM
NC(CCc1ccccc1)P(=O)(O)CC(Cc1ccccc1)C(=O)O (stereo not shown) [Compound 4],IC50,NmAPN,397 ± 24 nM
same,Ki,NmAPN,302 ± 18 nM
same,mode of inhibition,NmAPN,"reversible, competitive and tight-binding inhibitors"
same,Ki,porcine kidney APN,276 nM
NC(=O)CC[C@H](N)C(=O)Nc1ccc2c(CC(N)=O)cc(=O)oc2c1 [L-Gln],Km,[2],> 250 µM
NC(CCc1ccccc1)P(=O)(O)O (stereo not shown) [Compound 2],IC50,NmAPN,1660 ± 70 nM
NC(CCc1ccccc1)P(=O)(O)CC(Cc1ccc(O)cc1)C(=O)O (stereo not shown) [Compound 5],IC50,NmAPN,70 ± 7 nM
same,mode of inhibition,NmAPN,"reversible, competitive and tight-binding inhibitors"
same,Ki,PfAPN,232 nM
same,Ki,porcine kidney APN,36 nM
NCC(=O)Nc1ccc2c(CC(N)=O)cc(=O)oc2c1 [Gly],Km,[2],> 250 µM
